pIC50: −log10 of the molar value.
Tests used:
Angiopoietin-1 receptor = Angiopoietin-1 receptor (Homo sapiens, UniProt Q02763); assay: Inhibition of TIE-2 (unknown origin) after 4 hrs by ADP-Glo luminescence assay
[1] = molecular target: Vascular endothelial growth factor receptor 2 (Homo sapiens, UniProt P35968); assay: Inhibition of VEGFR-2 (unknown origin) after 60 mins by ADP-Glo luminescence assay
EA.hy 926 = assay: Anti-angiogenic activity in human EAhy926 cells as growth inhibition after 24 hrs by CCK-8 assay; type: cell-based; details: EA.hy 926, 24 h
Ephrin type-B receptor 4 = molecular target: T1, Ephrin type-B receptor 4 (Homo sapiens, UniProt P54760); assay: Inhibition of EphB4 (unknown origin) after 4 hrs by ADP-Glo luminescence assay
T1 sequence (P54760 whole entry): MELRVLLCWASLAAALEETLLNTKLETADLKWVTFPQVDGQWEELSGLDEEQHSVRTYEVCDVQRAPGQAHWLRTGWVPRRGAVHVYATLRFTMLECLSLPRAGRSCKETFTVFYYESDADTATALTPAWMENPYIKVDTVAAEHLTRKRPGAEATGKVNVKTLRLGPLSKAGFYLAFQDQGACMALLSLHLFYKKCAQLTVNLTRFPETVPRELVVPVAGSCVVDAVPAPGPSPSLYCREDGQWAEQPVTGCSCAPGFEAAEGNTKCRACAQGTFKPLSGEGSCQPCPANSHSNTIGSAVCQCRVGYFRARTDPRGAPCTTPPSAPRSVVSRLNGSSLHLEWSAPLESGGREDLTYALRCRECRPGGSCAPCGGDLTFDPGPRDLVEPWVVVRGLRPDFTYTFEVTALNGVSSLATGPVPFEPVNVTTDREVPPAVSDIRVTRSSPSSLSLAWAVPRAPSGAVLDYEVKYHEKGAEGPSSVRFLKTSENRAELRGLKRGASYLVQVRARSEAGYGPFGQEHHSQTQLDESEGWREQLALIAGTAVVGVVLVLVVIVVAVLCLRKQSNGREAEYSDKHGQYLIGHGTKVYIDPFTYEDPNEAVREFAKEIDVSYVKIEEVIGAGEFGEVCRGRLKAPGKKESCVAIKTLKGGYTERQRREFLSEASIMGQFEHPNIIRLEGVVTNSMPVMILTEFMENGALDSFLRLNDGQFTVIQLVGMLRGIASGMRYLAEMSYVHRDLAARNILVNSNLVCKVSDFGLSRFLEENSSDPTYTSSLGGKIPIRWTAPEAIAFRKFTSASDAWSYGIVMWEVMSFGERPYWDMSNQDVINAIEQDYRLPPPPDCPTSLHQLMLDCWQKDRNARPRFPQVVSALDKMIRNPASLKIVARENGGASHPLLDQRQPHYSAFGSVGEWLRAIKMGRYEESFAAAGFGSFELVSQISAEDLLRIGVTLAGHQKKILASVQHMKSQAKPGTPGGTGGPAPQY

[2] = molecular target: Mast/stem cell growth factor receptor Kit (Homo sapiens, UniProt P10721); assay: Inhibition of cKIT (unknown origin)
[3] = molecular target: Epidermal growth factor receptor (Homo sapiens, UniProt P00533); assay: Inhibition of EGFR (unknown origin)
Sequence of Epidermal growth factor receptor (P00533 whole entry): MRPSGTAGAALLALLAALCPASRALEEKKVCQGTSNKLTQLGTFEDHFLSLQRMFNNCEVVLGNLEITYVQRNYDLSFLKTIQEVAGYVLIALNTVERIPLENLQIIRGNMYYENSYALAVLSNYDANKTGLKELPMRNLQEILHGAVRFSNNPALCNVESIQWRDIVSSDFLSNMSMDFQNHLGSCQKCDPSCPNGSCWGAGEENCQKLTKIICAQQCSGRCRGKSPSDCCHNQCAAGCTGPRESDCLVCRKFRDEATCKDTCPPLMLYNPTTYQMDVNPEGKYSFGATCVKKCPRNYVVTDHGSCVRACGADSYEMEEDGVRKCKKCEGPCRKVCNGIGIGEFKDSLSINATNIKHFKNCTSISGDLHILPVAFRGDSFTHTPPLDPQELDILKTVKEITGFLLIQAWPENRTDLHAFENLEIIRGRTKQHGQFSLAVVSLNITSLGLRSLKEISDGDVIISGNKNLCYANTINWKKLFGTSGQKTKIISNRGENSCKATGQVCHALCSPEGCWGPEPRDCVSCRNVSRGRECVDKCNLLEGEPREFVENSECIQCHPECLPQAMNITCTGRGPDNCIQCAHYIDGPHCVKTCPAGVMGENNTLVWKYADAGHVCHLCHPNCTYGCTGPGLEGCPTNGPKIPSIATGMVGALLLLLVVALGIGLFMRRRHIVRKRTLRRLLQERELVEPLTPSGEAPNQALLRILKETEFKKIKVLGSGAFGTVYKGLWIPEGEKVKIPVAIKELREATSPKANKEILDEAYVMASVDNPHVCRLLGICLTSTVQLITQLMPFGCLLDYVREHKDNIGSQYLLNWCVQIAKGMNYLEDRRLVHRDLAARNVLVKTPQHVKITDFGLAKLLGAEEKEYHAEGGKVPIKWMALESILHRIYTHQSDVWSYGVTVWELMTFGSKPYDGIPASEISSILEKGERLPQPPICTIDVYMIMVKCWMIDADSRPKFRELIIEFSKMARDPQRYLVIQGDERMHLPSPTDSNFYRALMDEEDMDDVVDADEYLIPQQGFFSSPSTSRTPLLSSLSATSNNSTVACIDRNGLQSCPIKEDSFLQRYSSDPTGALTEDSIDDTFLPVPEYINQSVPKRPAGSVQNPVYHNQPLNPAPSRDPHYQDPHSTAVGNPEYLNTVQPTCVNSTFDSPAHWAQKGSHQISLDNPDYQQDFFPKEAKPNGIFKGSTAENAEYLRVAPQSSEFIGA

[4] = molecular target: Vascular endothelial growth factor receptor 1 (Homo sapiens, UniProt P17948); assay: Inhibition of VEGFR-1 (unknown origin)
[5] = molecular target: Serine/threonine-protein kinase B-raf (Homo sapiens, UniProt P15056); assay: Inhibition of BRAF (unknown origin)
[6] = molecular target: Insulin-like growth factor 1 receptor (Homo sapiens, UniProt P08069); assay: Inhibition of IGF1-R (unknown origin)
[7] = molecular target: Fibroblast growth factor receptor 1 (Homo sapiens, UniProt P11362); assay: Inhibition of FGFR-1 (unknown origin)
[8] = molecular target: Platelet-derived growth factor receptor beta (Homo sapiens, UniProt P09619); assay: Inhibition of PDGFRbeta (unknown origin)
Sequence of Platelet-derived growth factor receptor beta (P09619 whole entry): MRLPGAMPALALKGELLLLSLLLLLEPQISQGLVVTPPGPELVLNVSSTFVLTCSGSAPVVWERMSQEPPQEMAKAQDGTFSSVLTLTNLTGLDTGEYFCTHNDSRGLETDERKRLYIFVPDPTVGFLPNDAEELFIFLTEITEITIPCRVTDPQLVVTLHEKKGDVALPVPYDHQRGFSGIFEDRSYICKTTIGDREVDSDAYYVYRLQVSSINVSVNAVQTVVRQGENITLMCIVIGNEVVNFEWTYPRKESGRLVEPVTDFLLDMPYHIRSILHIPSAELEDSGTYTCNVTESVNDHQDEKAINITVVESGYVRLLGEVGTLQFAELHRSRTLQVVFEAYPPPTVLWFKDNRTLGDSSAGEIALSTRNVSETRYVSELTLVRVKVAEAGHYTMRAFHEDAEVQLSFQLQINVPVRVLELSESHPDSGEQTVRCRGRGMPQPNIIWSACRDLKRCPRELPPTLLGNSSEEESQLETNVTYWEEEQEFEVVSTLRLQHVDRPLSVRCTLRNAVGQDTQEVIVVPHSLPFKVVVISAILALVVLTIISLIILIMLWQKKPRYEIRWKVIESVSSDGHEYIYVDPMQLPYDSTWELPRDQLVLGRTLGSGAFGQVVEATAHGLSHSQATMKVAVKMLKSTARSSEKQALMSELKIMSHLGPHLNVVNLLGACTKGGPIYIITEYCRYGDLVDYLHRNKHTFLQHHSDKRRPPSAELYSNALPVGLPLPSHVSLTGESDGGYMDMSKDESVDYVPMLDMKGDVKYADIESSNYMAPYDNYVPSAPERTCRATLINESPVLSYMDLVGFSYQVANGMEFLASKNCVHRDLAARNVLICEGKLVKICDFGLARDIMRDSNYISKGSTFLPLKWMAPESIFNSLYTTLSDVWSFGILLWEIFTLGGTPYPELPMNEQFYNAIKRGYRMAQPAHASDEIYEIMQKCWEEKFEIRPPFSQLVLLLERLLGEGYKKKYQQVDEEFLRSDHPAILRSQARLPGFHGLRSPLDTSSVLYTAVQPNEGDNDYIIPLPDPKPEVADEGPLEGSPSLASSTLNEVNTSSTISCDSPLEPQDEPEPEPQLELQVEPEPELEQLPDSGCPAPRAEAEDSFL

[9] = molecular target: Hepatocyte growth factor receptor (Homo sapiens, UniProt P08581); assay: Inhibition of cMET (unknown origin)
[10] = molecular target: Fibroblast growth factor receptor 4 (Homo sapiens, UniProt P22455); assay: Inhibition of FGFR-4 (unknown origin)
[11] = molecular target: Vascular endothelial growth factor receptor 3 (Homo sapiens, UniProt P35916); assay: Inhibition of VEGFR-3 (unknown origin)

Sequence of Angiopoietin-1 receptor (Q02763 whole entry): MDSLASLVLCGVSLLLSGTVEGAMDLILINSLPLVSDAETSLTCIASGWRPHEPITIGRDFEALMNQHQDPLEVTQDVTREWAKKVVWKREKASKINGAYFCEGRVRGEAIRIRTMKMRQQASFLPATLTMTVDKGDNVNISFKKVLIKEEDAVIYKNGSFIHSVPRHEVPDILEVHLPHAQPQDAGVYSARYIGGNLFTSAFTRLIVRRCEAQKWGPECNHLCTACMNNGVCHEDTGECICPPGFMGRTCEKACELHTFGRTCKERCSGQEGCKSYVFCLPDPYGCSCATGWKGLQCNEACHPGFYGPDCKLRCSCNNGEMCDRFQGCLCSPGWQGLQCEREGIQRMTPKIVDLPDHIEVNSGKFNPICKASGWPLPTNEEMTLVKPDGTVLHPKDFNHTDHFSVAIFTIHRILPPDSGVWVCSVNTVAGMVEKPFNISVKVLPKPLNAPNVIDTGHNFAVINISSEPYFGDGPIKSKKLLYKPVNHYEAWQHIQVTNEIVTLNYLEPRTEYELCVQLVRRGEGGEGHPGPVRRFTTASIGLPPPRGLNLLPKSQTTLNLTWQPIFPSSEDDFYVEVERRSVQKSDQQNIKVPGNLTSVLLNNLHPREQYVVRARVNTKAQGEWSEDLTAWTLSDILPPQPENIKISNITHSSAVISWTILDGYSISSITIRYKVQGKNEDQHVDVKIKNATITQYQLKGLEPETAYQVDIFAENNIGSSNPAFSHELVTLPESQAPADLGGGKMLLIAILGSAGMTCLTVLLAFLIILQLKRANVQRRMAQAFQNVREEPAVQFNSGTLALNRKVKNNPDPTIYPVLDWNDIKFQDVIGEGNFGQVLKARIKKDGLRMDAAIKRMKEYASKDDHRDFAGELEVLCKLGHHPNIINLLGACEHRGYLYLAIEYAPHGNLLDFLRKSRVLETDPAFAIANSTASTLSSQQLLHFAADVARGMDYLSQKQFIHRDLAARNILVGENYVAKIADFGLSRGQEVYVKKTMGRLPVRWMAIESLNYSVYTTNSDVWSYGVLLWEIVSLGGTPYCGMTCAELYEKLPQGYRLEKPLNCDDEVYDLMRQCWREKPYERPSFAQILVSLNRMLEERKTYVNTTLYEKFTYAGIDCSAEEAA
Sequence of Vascular endothelial growth factor receptor 2 (P35968 whole entry): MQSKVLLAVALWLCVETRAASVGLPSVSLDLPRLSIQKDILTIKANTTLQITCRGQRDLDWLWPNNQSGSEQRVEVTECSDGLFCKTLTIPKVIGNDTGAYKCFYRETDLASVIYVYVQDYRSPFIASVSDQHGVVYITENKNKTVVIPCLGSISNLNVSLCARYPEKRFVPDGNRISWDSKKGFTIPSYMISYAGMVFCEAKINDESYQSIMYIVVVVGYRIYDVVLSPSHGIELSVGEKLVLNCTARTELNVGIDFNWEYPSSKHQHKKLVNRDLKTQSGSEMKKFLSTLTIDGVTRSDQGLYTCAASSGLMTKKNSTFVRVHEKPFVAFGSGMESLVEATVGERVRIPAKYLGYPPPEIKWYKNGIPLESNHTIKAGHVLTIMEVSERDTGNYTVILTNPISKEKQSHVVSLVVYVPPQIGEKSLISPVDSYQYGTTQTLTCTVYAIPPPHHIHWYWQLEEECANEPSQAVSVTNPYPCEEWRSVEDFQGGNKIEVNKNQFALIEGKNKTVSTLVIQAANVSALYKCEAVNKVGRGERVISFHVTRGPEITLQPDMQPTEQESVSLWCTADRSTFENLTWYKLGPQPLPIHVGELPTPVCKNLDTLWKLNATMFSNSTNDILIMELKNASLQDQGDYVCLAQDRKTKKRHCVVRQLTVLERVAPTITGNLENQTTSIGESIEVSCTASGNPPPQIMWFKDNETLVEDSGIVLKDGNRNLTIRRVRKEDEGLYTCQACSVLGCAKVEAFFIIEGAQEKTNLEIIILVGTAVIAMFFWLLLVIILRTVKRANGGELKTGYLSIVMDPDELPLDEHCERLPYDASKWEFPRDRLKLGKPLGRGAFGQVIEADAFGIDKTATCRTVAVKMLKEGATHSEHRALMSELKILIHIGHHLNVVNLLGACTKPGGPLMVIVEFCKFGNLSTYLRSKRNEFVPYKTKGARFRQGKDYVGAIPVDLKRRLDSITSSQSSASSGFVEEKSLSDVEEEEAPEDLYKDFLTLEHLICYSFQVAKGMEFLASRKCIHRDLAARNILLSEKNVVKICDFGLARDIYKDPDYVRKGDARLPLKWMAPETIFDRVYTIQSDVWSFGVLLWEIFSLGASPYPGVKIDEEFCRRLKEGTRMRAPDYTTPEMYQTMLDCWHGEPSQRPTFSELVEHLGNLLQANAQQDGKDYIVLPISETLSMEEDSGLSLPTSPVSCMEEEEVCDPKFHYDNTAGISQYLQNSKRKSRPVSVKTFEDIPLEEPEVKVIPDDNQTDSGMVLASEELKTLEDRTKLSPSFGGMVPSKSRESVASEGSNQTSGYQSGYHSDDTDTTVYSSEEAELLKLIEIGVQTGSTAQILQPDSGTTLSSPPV

Structure (SMILES)	pIC50 (Angiopoietin-1 receptor)	also measured
Nc1ncc2ccc(-c3ccc(NC(=O)C4(C(=O)Nc5cc(Br)cc(C(F)(F)F)c5)CC4)cc3)cc2n1	7.19	
C=CC(=O)Nc1ccc(-c2ccc(NC(=O)Nc3ccc(F)cc3)cc2)cn1	6.98	
Nc1ncc2ccc(-c3ccc(NC(=O)C4(C(=O)Nc5cc(OC(F)(F)F)ccc5Br)CC4)cc3)cc2n1	7.83	
C=CC(=O)Nc1ccc(-c2ccc(NC(=O)Nc3ccc(OC(F)(F)F)cc3)cc2)cn1	7.22	
Nc1ncc2ccc(-c3ccc(NC(=O)C4(C(=O)Nc5ccc(OC(F)(F)F)cc5Br)CC4)cc3)cc2n1	< 6.30	
Nc1ncc2ccc(-c3ccc(NC(=O)C4(C(=O)Nc5ccc(Br)cc5OC(F)(F)F)CC4)cc3)cc2n1	< 6.30	
Nc1ncc2ccc(-c3ccc(NC(=O)C4(C(=O)Nc5cc(Br)ccc5OC(F)(F)F)CC4)cc3)cc2n1	< 6.30	
C=CC(=O)Nc1ccc(-c2ccc(NC(=O)Nc3cccc(C(C)C)c3)cc2)cn1	8.04	
O=C(Nc1cccc(-c2ccc3c(=O)[nH]cnc3c2)c1)Nc1ccc(F)c(F)c1	7.78	
Nc1ncc2ccc(-c3ccc(NC(=O)C4(C(=O)Nc5ccc6c(c5)OCO6)CC4)cc3)cc2n1	6.36	pIC50 [1]: < 6.30; pIC50 (EA.hy 926): 4.53; pIC50 (Ephrin type-B receptor 4): < 6.30
C=CC(=O)Nc1ccc(-c2ccc(NC(=O)Nc3c(C)cccc3C)cc2)cn1	< 6.30	
C=CC(=O)Nc1ccc(-c2ccc(NC(=O)Nc3ccccc3Cl)cc2)cn1	8.10	
C=CC(=O)Nc1ccc(-c2ccc(NC(=O)Nc3cccc(F)c3)cc2)cn1	7.04	
C=CC(=O)Nc1ccc(-c2ccc(NC(=O)Nc3cccc(C(F)(F)F)c3)cc2)cn1	8.44	
C=CC(=O)Nc1ccc(-c2ccc(NC(=O)Nc3ccc(Cl)c(C(F)(F)F)c3)cc2)cn1	8.01	
C=CC(=O)Nc1ccc(-c2ccc(NC(=O)Nc3ccc(C(C)(C)C)cc3)cc2)cn1	7.67	
Nc1ncc2ccc(-c3ccc(NC(=O)C4(C(=O)Nc5ccc(Cl)c(Cl)c5)CC4)cc3)cc2n1	< 6.30	
Nc1ncc2ccc(-c3ccc(NC(=O)C4(C(=O)Nc5cc(C(F)(F)F)cc(C(F)(F)F)c5)CC4)cc3)cc2n1	7.67	
O=C(Nc1cccc(-c2ccc3c(=O)[nH]cnc3c2)c1)Nc1cccc(C(F)(F)F)c1	7.89	
O=C(Nc1cccc(Cl)c1)Nc1cccc(-c2ccc3c(=O)[nH]cnc3c2)c1	7.61	
Nc1ncc2ccc(-c3ccc(NC(=O)C4(C(=O)Nc5ccc(Cl)cc5Cl)CC4)cc3)cc2n1	7.26	
O=C(Nc1cccc(-c2ccc3c(=O)[nH]cnc3c2)c1)Nc1ccc(Cl)c(C(F)(F)F)c1	< 6.30	
C=CC(=O)Nc1ccc(-c2ccc(NC(=O)Nc3cccc(Cl)c3)cc2)cn1	8.25	pIC50 [2]: 7.16; pIC50 [3]: 8.06; pIC50 [4]: 7.60; pIC50 [5]: 7.49; pIC50 [6]: 7.40; pIC50 [7]: 6.70; pIC50 [8]: 6.74; pIC50 [9]: 7.24; pIC50 [10]: 5.97; pIC50 [11]: 7.35
Nc1ncc2ccc(-c3ccc(NC(=O)C4(C(=O)Nc5ccc(OCCCN6CCOCC6)c(F)c5)CC4)cc3)cc2n1	< 6.30	pIC50 [1]: < 6.30; pIC50 (EA.hy 926): 4.49; pIC50 (Ephrin type-B receptor 4): < 6.30
O=C(Nc1cccc(-c2ccc3c(=O)[nH]cnc3c2)c1)Nc1cc(C(F)(F)F)cc(C(F)(F)F)c1	6.61	
C=CC(=O)Nc1ccc(-c2ccc(NC(=O)Nc3ccc(C)c(Cl)c3)cc2)cn1	7.85	
Nc1ncc2ccc(-c3ccc(NC(=O)C4(C(=O)Nc5ccc(F)c(F)c5)CC4)cc3)cc2n1	7.84	

Source: ChEMBL document CHEMBL4130538, “Discovery of novel anti-angiogenesis agents. Part 7: Multitarget inhibitors of VEGFR-2, TIE-2 and EphB4” (Eur J Med Chem, 2017)
